# Experimental data from ChEMBL document CHEMBL1124699, “3-Hydroxy-3-methylglutaryl-coenzyme A reductase inhibitors. 6. Trans-6-[2-(substituted-1-naphthyl)ethyl(or ethenyl)]-3,4,5,6-tetrahydro-4-hydroxy-2H-pyran-2-ones” (J Med Chem, 1990).
# What was measured:
# [1] = target: T1, 3-hydroxy-3-methylglutaryl-coenzyme A reductase (Rattus norvegicus, UniProt P51639); assay: Inhibitory activity against HMG-CoA reductase
# T1 sequence (P51639 whole entry): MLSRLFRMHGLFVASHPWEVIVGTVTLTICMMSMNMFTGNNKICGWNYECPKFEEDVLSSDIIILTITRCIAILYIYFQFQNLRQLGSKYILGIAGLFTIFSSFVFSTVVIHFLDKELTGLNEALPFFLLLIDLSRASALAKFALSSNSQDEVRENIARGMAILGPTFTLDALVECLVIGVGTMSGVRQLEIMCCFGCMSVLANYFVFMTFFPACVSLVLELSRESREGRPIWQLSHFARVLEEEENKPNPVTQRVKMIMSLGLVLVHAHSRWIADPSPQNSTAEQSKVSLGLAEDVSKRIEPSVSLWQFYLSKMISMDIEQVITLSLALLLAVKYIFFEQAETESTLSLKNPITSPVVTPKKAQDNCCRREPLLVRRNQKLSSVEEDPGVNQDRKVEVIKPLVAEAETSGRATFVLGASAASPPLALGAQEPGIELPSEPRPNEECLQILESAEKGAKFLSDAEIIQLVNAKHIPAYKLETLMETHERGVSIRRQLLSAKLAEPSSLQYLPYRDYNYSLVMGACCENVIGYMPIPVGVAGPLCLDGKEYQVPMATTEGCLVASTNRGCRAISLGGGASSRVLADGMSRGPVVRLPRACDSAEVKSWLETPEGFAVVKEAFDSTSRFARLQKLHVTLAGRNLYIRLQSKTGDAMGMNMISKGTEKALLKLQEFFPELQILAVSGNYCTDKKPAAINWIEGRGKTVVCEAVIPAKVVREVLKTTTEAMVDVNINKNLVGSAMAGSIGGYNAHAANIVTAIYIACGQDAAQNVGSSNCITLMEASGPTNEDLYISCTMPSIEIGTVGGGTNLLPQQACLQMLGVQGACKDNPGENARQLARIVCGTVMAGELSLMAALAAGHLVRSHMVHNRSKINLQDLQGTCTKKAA
# [2] = target: T2, 3-hydroxy-3-methylglutaryl-coenzyme A reductase (Rattus norvegicus) (UniProt P51639); assay: Potency against HMG-CoA reductase relative to Compactin
# T2 sequence (whole entry): T1 sequence (P51639 whole entry)
Structure (SMILES),IC50 [1] [nM],Relative potency [2]
Cc1ccc2c(C)cc(C)c(CCC3C[C@@H](O)CC(=O)O3)c2c1 (some centres undefined),360,5
O=C1C[C@H](O)CC(CCc2c(Cl)cc(Cl)c3ccc(Cl)cc23)O1 (some centres undefined),32,47
O=C1C[C@H](O)CC(CCc2ccc(Cl)c3cc(Cl)ccc23)O1 (some centres undefined),7000,0.3
Cc1cc(Cl)c(CCC2C[C@@H](O)CC(=O)O2)c2cc(Cl)ccc12 (some centres undefined),130,15
Cc1cc(C)c2ccc(Cl)cc2c1CCC1C[C@@H](O)CC(=O)O1 (some centres undefined),200,7
Cc1cc(Cl)c2ccc(Cl)cc2c1CCC1C[C@@H](O)CC(=O)O1 (some centres undefined),60,30
O=C1C[C@H](O)CC(CCc2c(Cl)cc(Cl)c3cc(Cl)ccc23)O1 (some centres undefined),33,46

# Results, then the molecule that gave them:
IC50 [1] [nM],Relative potency [2],Structure (SMILES)
4120,0.72,O=C1C[C@H](O)C[C@@H](/C=C/c2cccc3cccc(Br)c23)O1
1510,2.3,O=C1C[C@H](O)C[C@@H](/C=C/c2c(Cl)ccc3ccccc23)O1
23300,0.15,O=C1C[C@H](O)CC(CCc2ccc(Br)c3ccccc23)O1 (some centres undefined)
4000,0.96,O=C1C[C@H](O)C[C@@H](/C=C/c2ccc(Br)c3ccccc23)O1
81000,0.043,O=C1C[C@H](O)CC(CCc2cccc3ccccc23)O1 (some centres undefined)
